Counter-ions that a name gives are not always drawn.

In the assay the test system is Human platelet aggregation caused by ADP. The assay can be described thus: Inhibition of ADP-induced platelet aggregation (Mimic-human PRP). The class given is cell-based. The following applies: 20 μM ADP, human platelet concentrate diluted with PPP, absorption at 595 nm. How it is done:
Platelet Preparation for Aggregation Studies
Human platelet aggregation reaction test is a functional experiment method to verify whether a test compound is an agonist or an antagonist to ADP receptor. […] The platelet product isolated from whole blood was purchased from Chung-Nam blood center (Dae-joen, South Korea). The platelet was isolated from 400 mL of whole blood containing 56 mL of CPDA-1 anticoagulant. To isolate the platelet product, 400 mL of whole blood was centrifuged at 260×g for 5 minutes, and then obtained PRP (platelet rich plasma) was secondary centrifuged at 370×g for 6 minutes. Platelet pellet (10^9/mL) was suspended with 45 mL of plasma and then agitated over 1 hour at 22° C. blood reservoir to stabilize it. The stabilized platelet product was used in the experiment within 24 hours. PCs (Platelet Concentrates) were gently transferred to a new 50 ml-falcon tube. The number of platelet was counted by using animal blood counter (ABC Vet, ABX diagnostics, France). The volume of 30 mL of PCs collected from same donor was centrifuged at 1500 g for 10 min at room temperature to prepare platelet-poor plasma (PPP). The platelet count was adjusted to platelet number of 3˜4×10^8/mL by diluting with PPP.
Evaluation on Inhibitory Effect of ADP-Induced Aggregation
Inhibition of ADP-induced aggregation was determined in 96-well flat-bottom plates (Costar, USA) at room temperature. The diluted platelet was aliquoted into each well of 96 well plate in the volume of 188 μl. […] The platelet including test compounds was immediately mixed on a shaker at 1050 rpm for 1 min and incubated at room temperature for 20 min. Then, 10 μL volume of 400 μM ADP was added: the final concentration of 20 μM ADP in the total reaction volume of 0.2 mL/well. After shaking of the plate at room temperature for 3 min, the absorption of the samples was determined at 595 nm using a microtiter plate reader (Softmax, Molecular Devices).
A dose-dependent curve on serial dilutions of ADP was accomplished by adding vehicle (DMSO) instead of antagonists in order to calculate EC50 of ADP. Inhibition of aggregation was calculated from the increase of absorption at 595 nm at 3 min of the reaction incubation, compared to results of absorption between the 0 and 20 μM ADP control without antagonists. Sigmoidal dose-response curves and Ki were derived by non-linear regression analysis using the Prism software (GraphPad, San Diego Calif.).

`CCCc1cc2c(N3CCn4c(nnc4C(F)(F)F)C3)nc(N3CCC[C@@H](NC(C)=O)C3)nc2s1` [Example 7-6, Hydrochloric acid salt of N-{(R)-1-[6-Propyl-4-(3-trifluoromethyl-5,6-dihydro-8H-[1,2,4]triazolo[4,3-a]pyrazin-7-yl)-thieno[2,3-d]pyrimidin-2-yl]-piperidin-3-yl}-acetamide]: the Ki (in general, the equilibrium dissociation constant of an inhibitor or competing ligand from its target) worked out at 18 nM.

In the case of `CCCC(=O)N[C@@H]1CCCN(c2nc(N3CCn4c(nnc4C(F)(F)F)C3)c3cc(CCC)sc3n2)C1` [Example 7-7, Hydrochloric acid salt of N-{(R)-1-[6-Propyl-4-(3-trifluoromethyl-5,6-dihydro-8H-[1,2,4]triazolo[4,3-a]pyrazin-7-yl)-thieno[2,3-d]pyrimidin-2-yl]-piperidin-3-yl}-butyramide], affinity was put at a Ki of 63 nM. In the case of `CCCc1cc2c(N3CCn4c(nnc4C(F)(F)F)C3)nc(N3CCC[C@@H](NC(=O)C(C)C)C3)nc2s1` [Example 7-8, Hydrochloric acid salt of N-{(R)-1-[6-Propyl-4-(3-trifluoromethyl-5,6-dihydro-8H-[1,2,4]triazolo[4,3-a]pyrazin-7-yl)-thieno[2,3-d]pyrimidin-2-yl]-piperidin-3-yl}-isobutyramide] it was 150 nM.

The molecule `CCCc1cc2c(N3CCn4c(nnc4C(F)(F)F)C3)nc(N3CCC[C@H](NC(C)=O)C3)nc2s1` [Example 7-9, Hydrochloric acid salt of N-{(S)-1-[6-Propyl-4-(3-trifluoromethyl-5,6-dihydro-8H-[1,2,4]triazolo[4,3-a]pyrazin-7-yl)-thieno[2,3-d]pyrimidin-2-yl]-piperidin-3-yl}-acetamide] yielded a Ki of 590 nM. Consider `CCCC(=O)N[C@H]1CCCN(c2nc(N3CCn4c(nnc4C(F)(F)F)C3)c3cc(CCC)sc3n2)C1` [Example 7-10, Hydrochloric acid salt of N-{(S)-1-[6-Propyl-4-(3-trifluoromethyl-5,6-dihydro-8H-[1,2,4]triazolo[4,3-a]pyrazin-7-yl)-thieno[2,3-d]pyrimidin-2-yl]-piperidin-3-yl}-butyramide], for which affinity was put at a Ki of 980 nM. Then `CCCc1cc2c(N3CCn4c(nnc4C(F)(F)F)C3)nc(N3CCC[C@H](NC(=O)C(C)C)C3)nc2s1` [Example 7-11, Hydrochloric acid salt of N-{(S)-1-[6-Propyl-4-(3-trifluoromethyl-5,6-dihydro-8H-[1,2,4]triazolo[4,3-a]pyrazin-7-yl)-thieno[2,3-d]pyrimidin-2-yl]-piperidin-3-yl}-isobutyramide], with 280 nM.

As to `CCCc1cc2c(N3CCn4c(nnc4C(F)(F)F)C3)nc(N3CCC(NC(C)=O)CC3)nc2s1` [Example 7-12, Hydrochloric acid salt of N-{1-[6-Propyl-4-(3-trifluoromethyl-5,6-dihydro-8H-[1,2,4]triazolo[4,3-a]pyrazin-7-yl)-thieno[2,3-d]pyrimidin-2-yl]-piperidin-4-yl}-acetamide], the Ki is 35 nM. In the case of `CCCC(=O)NC1CCN(c2nc(N3CCn4c(nnc4C(F)(F)F)C3)c3cc(CCC)sc3n2)CC1` [Example 7-13, Hydrochloric acid salt of N-{1-[6-Propyl-4-(3-trifluoromethyl-5,6-dihydro-8H-[1,2,4]triazolo[4,3-a]pyrazin-7-yl)-thieno[2,3-d]pyrimidin-2-yl]-piperidin-4-yl}-butyramide] it was 76 nM; in that of `CCCc1cc2c(N3CCn4c(nnc4C(F)(F)F)C3)nc(N3CCC(NC(=O)C(C)C)CC3)nc2s1` [Example 7-14, Hydrochloric acid salt of N-{1-[6-Propyl-4-(3-trifluoromethyl-5,6-dihydro-8H-[1,2,4]triazolo[4,3-a]pyrazin-7-yl)-thieno[2,3-d]pyrimidin-2-yl]-piperidin-4-yl}-isobutyramide], 120 nM. Consider `CCCC(=O)N1CCN(c2nc(N3CCn4c(nnc4C(F)(F)F)C3)c3cc(CCC)sc3n2)CC1` [Example 7-15, Hydrochloric acid salt of 1-{4-[6-Propyl-4-(3-trifluoromethyl-5,6-dihydro-8H-[1,2,4]triazolo[4,3-a]pyrazin-7-yl)-thieno[2,3-d]pyrimidin-2-yl]-piperazin-1-yl}-butan-1-one], for which the Ki is 600 nM.

Turning to `CCCc1cc2c(N3CCn4c(nnc4C(F)(F)F)C3)nc(N3CCN(C(=O)C(C)C)CC3)nc2s1` [Example 7-16, Hydrochloric acid salt of 2-Methyl-1-{4-[6-propyl-4-(3-trifluoromethyl-5,6-dihydro-8H-[1,2,4]triazolo[4,3-a]pyrazin-7-yl)-thieno[2,3-d]pyrimidin-2-yl]-piperazin-1-yl}-propan-1-one], the Ki turned out to be 590 nM. Then `CCCc1cc2c(N3CCn4c(nnc4C(F)(F)F)C3)nc(N3CC(O)C(NC(C)=O)C3)nc2s1` (centres unmarked) [Example 7-17, N-{4-Hydroxy-1-[6-propyl-4-(3-trifluoromethyl-5,6-dihydro-8H-[1,2,4]triazolo[4,3-a]pyrazin-7-yl)-thieno[2,3-d]pyrimidin-2-yl]-pyrrolidin-3-yl}-acetamide], with 2.8 nM; and `CCCc1cc2c(N3CCn4c(nnc4C(F)(F)F)C3)nc(N3CC(NC(C)=O)C(OC(C)=O)C3)nc2s1` (centres unmarked) [Example 7-18, Acetic acid 4-acetylamino-1-[6-propyl-4-(3-trifluoromethyl-5,6-dihydro-8H-[1,2,4]triazolo[4,3-a]pyrazin-7-yl)-thieno[2,3-d]pyrimidin-2-yl]-pyrrolidin-3-yl ester], with 6.5 nM; and `CCCC(=O)NC1CN(c2nc(N3CCn4c(nnc4C(F)(F)F)C3)c3cc(CCC)sc3n2)CC1O` (centres unmarked) [Example 7-19, N-{4-Hydroxy-1-[6-propyl-4-(3-trifluoromethyl-5,6-dihydro-8H-[1,2,4]triazolo[4,3-a]pyrazin-7-yl)-thieno[2,3-d]pyrimidin-2-yl]-pyrrolidin-3-yl}-butyramide], with 5 nM. Then `CCCc1cc2c(N3CCn4c(nnc4C(F)(F)F)C3)nc(N3CC(O)C(NC(=O)C(C)C)C3)nc2s1` (centres unmarked) [Example 7-20, N-{4-Hydroxy-1-[6-propyl-4-(3-trifluoromethyl-5,6-dihydro-8H-[1,2,4]triazolo[4,3-a]pyrazin-7-yl)-thieno[2,3-d]pyrimidin-2-yl]-pyrrolidin-3-yl}-isobutyramide], with 4.8 nM; and `CCCc1cc2c(N3CCn4c(nnc4C(F)(F)F)C3)nc(N3CC(O)C(NC(=O)C(C)(C)C)C3)nc2s1` (centres unmarked) [Example 7-21, N-{4-Hydroxy-1-[6-propyl-4-(3-trifluoromethyl-5,6-dihydro-8H-[1,2,4]triazolo[4,3-a]pyrazin-7-yl)-thieno[2,3-d]pyrimidin-2-yl]-pyrrolidin-3-yl}-2,2-dimethyl-propionamide], with 21 nM. In the case of `CCCc1cc2c(N3CCn4c(nnc4C(F)(F)F)C3)nc(N3CC(O)C(NC(=O)CO)C3)nc2s1` (centres unmarked) [Example 7-22, 2-Hydroxy-N-{4-hydroxy-1-[6-propyl-4-(3-trifluoromethyl-5,6-dihydro-8H-[1,2,4]triazolo[4,3-a]pyrazin-7-yl)-thieno[2,3-d]pyrimidin-2-yl]-pyrrolidin-3-yl}-acetamide] it was 4 nM; in that of `CCCc1cc2c(N3CCn4c(nnc4C(F)(F)F)C3)nc(N3CC(O)C(NC(=O)C(C)(C)O)C3)nc2s1` (centres unmarked) [Example 7-23, 2-Hydroxy-N-{4-hydroxy-1-[6-propyl-4-(3-trifluoromethyl-5,6-dihydro-8H-[1,2,4]triazolo[4,3-a]pyrazin-7-yl)-thieno[2,3-d]pyrimidin-2-yl]-pyrrolidin-3-yl}-2-methyl-propionamide], 12 nM; in that of `CCCc1cc2c(N3CCn4c(nnc4C(F)(F)F)C3)nc(N3CC(O)C(NC(=O)C(C)(CO)CO)C3)nc2s1` (centres unmarked) [Example 7-24, 3-Hydroxy-2-hydroxymethyl-N-{4-hydroxy-1-[6-propyl-4-(3-trifluoromethyl-5,6-dihydro-8H-[1,2,4]triazolo[4,3-a]pyrazin-7-yl)-thieno[2,3-d]pyrimidin-2-yl]-pyrrolidin-3-yl}-2-methyl-propionamide], 15 nM. `CCCc1cc2c(N3CCn4c(nnc4C(F)(F)F)C3)nc(N3CC(O)C(NC(=O)C(C)(C)CO)C3)nc2s1` (centres unmarked) [Example 7-25, 3-Hydroxy-N-{4-hydroxy-1-[6-propyl-4-(3-trifluoromethyl-5,6-dihydro-8H-[1,2,4]triazolo[4,3-a]pyrazin-7-yl)-thieno[2,3-d]pyrimidin-2-yl]-pyrrolidin-3-yl}-2,2-dimethyl-propionamide]: the Ki amounted to 18 nM.

The record behind these values is patent publication US20110166121A1 (LG LIFE SCIENCES LTD., priority 2008, published 2011).
